This passage reports melting point results from patent publication US7544707B2, “Bicyclic derivatives as PPAR modulators” (Eli Lilly and Company, priority 2003, dated 2009).

In the case of `O=C(O)Cc1csc2cc(OCc3ccc4cn(-c5ccc(C(F)(F)F)cc5)nc4c3)ccc12` [Example 25, {6-[2-(4-Trifluoromethylphenyl)-2H-indazol-6-ylmethoxy]benzo[b]thiophen-3-yl}acetic Acid], the melting point (commonly the temperature of the solid-liquid transition) is 240 to 242 °C.

For `Cc1cc(OC(C)c2cccc3c2cnn3-c2ccc(C(F)(F)F)cc2)ccc1OC(C)(C)C(=O)O` (racemic) [Example 82, (+/−)-2-Methyl-2-(2-methyl-4-{1-[1-(4-trifluoromethylphenyl)-1H-indazol-4-yl]ethoxy}phenoxy)propionic Acid], the melting point lay within 82 to 85 °C.

`CC(C)(Sc1ccc(OCc2ccc3cn(-c4ccc(C(F)(F)F)cc4)nc3c2)cc1)C(=O)O` [Example 55, 2-Methyl-2-{4-[2-(4-trifluoromethylphenyl)-2H-indazol-6-ylmethoxy]phenylsulfanyl}propionic Acid] displayed a melting point of 133 to 135 °C.

Regarding `CC(C)(Oc1ccc(OCc2ccc3nn(-c4ccc(C(F)(F)F)cc4)cc3c2)cc1)C(=O)O` [Example 65, 2-Methyl-2-{4-[2-(4-trifluoromethylphenyl)-2H-indazol-5-ylmethoxy]phenoxy}propionic Acid], the melting point lay within 203 to 205 °C.

With `CC(Oc1ccc(SC(C)(C)C(=O)O)cc1)c1cccc2cn(-c3ccc(C(F)(F)F)cc3)nc12` (racemic) [Example 43, (+/−)-2-Methyl-2-(4-{1-[2-(4-trifluoromethylphenyl)-2H-indazol-7-yl]ethoxy}phenylsulfanyl)propionic Acid], the melting point lay in the range of 158 to 160 °C.

`Cc1cc(SC(C)c2cccc3cn(-c4ccc(C(F)(F)F)cc4)nc23)ccc1CCC(=O)O` (racemic) [Example 9, (+/−)-3-(2-Methyl-4-{1-[2-(4-trifluoromethylphenyl)-2H-indazol-7-yl]ethylsulfanyl}phenyl)propionic Acid] returned a melting point of 59 to 61 °C.

`Cc1cc(SC(C)c2cccc3cn(-c4ccc(C(F)(F)F)cc4)nc23)ccc1OCC(=O)O` (racemic) [Example 8, (+/−)-2-Methyl-4-{1-[2-(4-trifluoromethylphenyl)-2H-indazol-7-yl]ethylsulfanyl}phenoxyacetic Acid] displayed a melting point of 62 to 64 °C.

`Cc1cc(SCc2ccc3cn(-c4ccc(C(F)(F)F)cc4)nc3c2)ccc1OCC(=O)O` [Example 19, 2-Methyl-4-[2-(4-trifluoromethylphenyl)-2H-indazol-6-ylmethylsulfanyl]phenoxyacetic Acid] came in with a melting point of 142 to 144 °C.

Consider `Cc1cc(OCc2cccc3cn(-c4ccc(C(F)(F)F)cc4)nc23)ccc1OC(C)(C)C(=O)O` [Example 37, 2-Methyl-2-{2-methyl-4-[2-(4-trifluoromethylphenyl)-2H-indazol-7-ylmethoxy]phenoxy}propionic Acid], for which the melting point is 165 to 167 °C.

For `CC(C)(Oc1ccc(OCc2cccc3cn(-c4ccc(C(F)(F)F)cc4)nc23)cc1)C(=O)O` [Example 39, 2-Methyl-2-{4-[2-(4-trifluoromethylphenyl)-2H-indazol-7-ylmethoxy]phenoxy}propionic Acid], the melting point was 178 to 180 °C.

For `CC(C)(Oc1ccc(SCc2cccc3cnn(-c4ccc(C(F)(F)F)cc4)c23)cc1)C(=O)O` [Example 99, 2-Methyl-2-{4-[1-(4-trifluoromethylphenyl)-1H-indazol-7-ylmethylsulfanyl]phenoxy}propionic Acid], the melting point lay within 125 to 128 °C.

In the case of `Cc1cc(SCCc2cccc3cn(-c4ccc(C(F)(F)F)cc4)nc23)ccc1OC(C)(C)C(=O)O` [Example 49, 2-Methyl-2-(2-methyl-4-{2-[2-(4-trifluoromethylphenyl)-2H-indazol-7-yl]ethylsulfanyl}phenoxy)propionic Acid], the melting point lay in the range of 141 to 143 °C.

As for `Cc1cc(SCc2cccc3nn(-c4ccc(C(F)(F)F)cc4)cc23)ccc1OC(C)(C)C(=O)O` [Example 71, 2-Methyl-2-{2-methyl-4-[2-(4-trifluoromethylphenyl)-2H-indazol-4-ylmethylsulfanyl]phenoxy}propionic Acid], the melting point fell in the range of 125 to 127 °C.

`Cc1cc(SC(CCC(F)(F)F)c2cccc3c2cnn3-c2ccc(C(F)(F)F)cc2)ccc1OC(C)(C)C(=O)O` (racemic) [Example 88, (+/−)-2-Methyl-2-(2-methyl-4-{4,4,4-trifluoro-1-[1-(4-trifluoromethylphenyl)-1H-indazol-4-yl]butylsulfanyl}phenoxy)propionic Acid]: the melting point lay in the range of 205 to 210 °C.

`Cc1cc(SCc2cccc3cn(-c4ccc(C(F)(F)F)cc4)nc23)ccc1OCC(=O)O` [Example 1, 2-Methyl-4-[2-(4-trifluoromethylphenyl)-2H-indazol-7-ylmethylsulfanyl]phenoxyacetic Acid] returned a melting point of 79 to 81 °C.

Molecule `Cc1cc(SCc2cccc3c2cnn3-c2ccc(C(F)(F)F)cc2)ccc1CCC(=O)O` [Example 32, 3-{2-Methyl-4-[1-(4-trifluoromethylphenyl)-1H-indazol-4-ylmethylsulfanyl]phenyl}propionic Acid] returned a melting point of 113 to 115 °C.

In turn, `CC(C)(Sc1ccc(OCc2cccc3cnn(-c4ccc(C(F)(F)F)cc4)c23)cc1)C(=O)O` [Example 97, 2-Methyl-2-{4-[1-(4-trifluoromethylphenyl)-1H-indazol-7-ylmethoxy]phenylsulfanyl}propionic Acid] displayed a melting point of 214 to 216 °C.

The molecule `Cc1cc(OCc2cccc3c2cnn3-c2ccc(C(F)(F)F)cc2)ccc1OC(C)(C)C(=O)O` [Example 77, 2-Methyl-2-{2-methyl-4-[1-(4-trifluoromethylphenyl)-1H-indazol-4-ylmethoxy]phenoxy}propionic Acid] yielded a melting point of 100 to 104 °C.

`CC(C)(Oc1ccc(OCc2ccc3cn(-c4ccc(C(F)(F)F)cc4)nc3c2)cc1)C(=O)O` [Example 52, 2-Methyl-2-{4-[2-(4-trifluoromethylphenyl)-2H-indazol-6-ylmethoxy]phenoxy}propionic Acid]: the melting point fell in the range of 199 to 201 °C.

`CC(Oc1ccc(SC(C)(C)C(=O)O)cc1)c1ccc2nn(-c3ccc(C(F)(F)F)cc3)cc2c1` (racemic) [Example 67, (+/−)-2-Methyl-2-(4-{1-[2-(4-trifluoromethylphenyl)-2H-indazol-5-yl]ethoxy}phenylsulfanyl)propionic Acid] returned a melting point of 153 to 155 °C.

With `CCc1cc(SCc2cccc3nn(-c4ccc(C(F)(F)F)cc4)cc23)ccc1OCC(=O)O` [Example 27, 2-Ethyl-4-[2-(4-trifluoromethylphenyl)-2H-indazol-4-ylmethylsufanyl]phenoxyacetic Acid], the melting point lay within 65 to 70 °C.

`Cc1cc(OC(CCC(F)(F)F)c2cccc3c2cnn3-c2ccc(C(F)(F)F)cc2)ccc1OC(C)(C)C(=O)O` (racemic) [Example 87, (+/−)-2-Methyl-2-(2-methyl-4-{4,4,4-trifluoro-1-[1-(4-trifluoromethylphenyl)-1H-indazol-4-yl]butoxy}phenoxy)propionic Acid] gave a melting point of 218 to 222 °C.

Take `Cc1cc(SC(C)c2ccc3nn(-c4ccc(C(F)(F)F)cc4)cc3c2)ccc1OC(C)(C)C(=O)O` (racemic) [Example 69, (+/−)-2-Methyl-2-(2-methyl-4-{1-[2-(4-trifluoromethylphenyl)-2H-indazol-5-yl]ethylsulfanyl}phenoxy)propionic Acid]: the melting point lay within 70 to 72 °C.

As for `CC(C)(Oc1ccc(SCc2ccc3cn(-c4ccc(C(F)(F)F)cc4)nc3c2)cc1)C(=O)O` [Example 54, 2-Methyl-2-{4-[2-(4-trifluoromethylphenyl)-2H-indazol-6-ylmethylsulfanyl]phenoxy}propionic Acid], the melting point was in the range of 176 to 178 °C.

For `CC(C)(Oc1ccc(OCCc2cccc3cn(-c4ccc(C(F)(F)F)cc4)nc23)cc1)C(=O)O` [Example 47, 2-Methyl-2-(4-{2-[2-(4-trifluoromethylphenyl)-2H-indazol-7-yl]ethoxy}phenoxy)propionic Acid], the melting point lay in the range of 122 to 124 °C.

Molecule `Cc1cc(OCc2cccc3cnn(-c4ccc(C(F)(F)F)cc4)c23)ccc1OC(C)(C)C(=O)O` [Example 96, 2-Methyl-2-{2-methyl-4-[1-(4-trifluoromethylphenyl)-1H-indazol-7-ylmethoxy]phenoxy}propionic Acid] displayed a melting point of 124 to 126 °C.

In turn, `Cc1cc(OCc2ccc3cn(-c4ccc(C(F)(F)F)cc4)nc3c2)ccc1OC(C)(C)C(=O)O` [Example 51, 2-Methyl-2-{2-methyl-4-[2-(4-trifluoromethylphenyl)-2H-indazol-6-ylmethoxy]phenoxy}propionic Acid] returned a melting point of 119 to 121 °C.

`CC(Oc1ccc(SC(C)(C)C(=O)O)cc1)c1cccc2nn(-c3ccc(C(F)(F)F)cc3)cc12` (racemic) [Example 76, (+/−)-2-Methyl-2-(4-{1-[2-(4-trifluoromethyl-phenyl)-2H-indazol-4-yl]ethoxy}phenylsulfanyl)propionic Acid]: the melting point lay in the range of 138 to 140 °C.

Molecule `CC(Sc1ccc2c(CC(=O)O)csc2c1)c1cccc2cn(-c3ccc(C(F)(F)F)cc3)nc12` (racemic) [Example 11, (+/−)-6-{1-[2-(4-Trifluoromethylphenyl)-2H-indazol-7-yl]ethylsulfanyl}benzo[b]thiophen-3-ylacetic Acid] displayed a melting point of 76 to 78 °C.

In turn, `Cc1cc(OC(C)c2ccc3cn(-c4ccc(C(F)(F)F)cc4)nc3c2)ccc1OC(C)(C)C(=O)O` (racemic) [Example 57, (+/−)-2-Methyl-2-(2-methyl-4-{1-[2-(4-trifluoromethylphenyl)-2H-indazol-6-yl]ethoxy}phenoxy)propionic Acid] yielded a melting point of 156 to 158 °C.

For `Cc1cc(SC(C)c2ccc3cn(-c4ccc(C(F)(F)F)cc4)nc3c2)ccc1OC(C)(C)C(=O)O` (racemic) [Example 60, (+/−)-2-Methyl-2-(2-methyl-4-{1-[2-(4-trifluoromethylphenyl)-2H-indazol-6-yl]ethylsulfanyl}phenoxy)propionic Acid], the melting point lay in the range of 114 to 116 °C.

Regarding `Cc1cc(OC(C)c2cccc3nn(-c4ccc(C(F)(F)F)cc4)cc23)ccc1OC(C)(C)C(=O)O` (racemic) [Example 74, (+/−)-2-Methyl-2-(2-methyl-4-{1-[2-(4-trifluoromethylphenyl)-2H-indazol-4-yl]ethoxy}phenoxy)propionic Acid], the melting point fell in the range of 130 to 132 °C.
